# Data from patent US20210122730A1, “GLUCOCORTICOID RECEPTOR MODULATORS” (ORIC Pharmaceuticals, Inc., priority 2017, published 2021).
# Molecular target: T1, GR (Homo sapiens, UniProt P04150)
# T1 construct: expressed in transfected cells; host or cells: CHO-K1
# T1 sequence (P04150 1-777): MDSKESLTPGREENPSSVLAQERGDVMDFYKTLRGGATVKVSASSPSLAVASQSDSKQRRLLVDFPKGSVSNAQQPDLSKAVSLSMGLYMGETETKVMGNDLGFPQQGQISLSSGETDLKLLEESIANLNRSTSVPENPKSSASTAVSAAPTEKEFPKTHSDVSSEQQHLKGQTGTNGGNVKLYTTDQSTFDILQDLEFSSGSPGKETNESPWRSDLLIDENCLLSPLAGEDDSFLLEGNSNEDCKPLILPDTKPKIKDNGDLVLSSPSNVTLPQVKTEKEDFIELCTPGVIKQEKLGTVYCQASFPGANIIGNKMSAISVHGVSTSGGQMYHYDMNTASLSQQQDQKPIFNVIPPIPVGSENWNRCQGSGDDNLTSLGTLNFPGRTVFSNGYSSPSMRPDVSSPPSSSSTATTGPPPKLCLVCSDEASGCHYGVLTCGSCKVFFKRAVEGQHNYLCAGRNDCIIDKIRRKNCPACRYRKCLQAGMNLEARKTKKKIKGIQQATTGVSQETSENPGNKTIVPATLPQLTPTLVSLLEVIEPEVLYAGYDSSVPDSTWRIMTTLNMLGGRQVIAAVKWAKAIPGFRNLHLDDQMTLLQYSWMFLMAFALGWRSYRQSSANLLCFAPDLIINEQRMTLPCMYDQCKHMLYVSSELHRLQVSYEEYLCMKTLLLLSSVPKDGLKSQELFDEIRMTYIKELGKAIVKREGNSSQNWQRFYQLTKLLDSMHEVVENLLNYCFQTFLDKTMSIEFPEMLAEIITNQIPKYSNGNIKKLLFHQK
# Test: In Vitro GR Luciferase Reporter Assay (antagonist mode, CHO-K1-GR-MMTV-Luc reporter cells)
# Format: cell-based
# Details: antagonist assay with 10 nM Dexamethasone, 18-24 hours
# From the text: Example A: In Vitro GR Luciferase Reporter Assay
# Cell Line: CHO-K1-GR-MMTV-Luc reporter cells
# Culture Media: DMEM (with phenol red)+10% FBS
# Assay Media: DMEM (without phenol red)+10% CSS
# Culture CHO-K1I-GR-MMTV-Luc reporter cells in 15 cm plates in Culture Media at conditions less than 90% confluence.
# Prepare 200×DMSO 1:5 serial dilutions of control and test compounds in 96-well non-sterile V bottom plate in DMSO, 8serial dilutions for each compound.
# Prepare 5× Assay Media diluted compound serial dilutions in 96-well non-sterile V bottom plate: Add 97.5 uL/well of Assay Media into 96-well then add 2.5 ul of 200× concentration of compounds and mix well.
# Seed cells for Antagonist Assay: […] CHO-K1-GR-MMTV-Luc reporter cells were seeded in a Corning 3707 flat clear bottom 384-well white TC plate in 20 ul of Assay Media containing 12.5 nM Dexamethasone (final concentration=10 nM).
# Add compounds: 5 ul of assay media diluted compounds were added to appropriate wells and followed a quick spin (1000 rpm, 10 sec) to bring media and cells to the bottom of plate. The plates were covered with SealMate film to avoid evaporation and placed in 37° C. incubator for approximately 18-24 hours.
# Read plates: Equilibrate appropriate amount of Promega OneGlo luciferase reagent to room temperature. Remove the plates from incubator and add 25 uL of OneGlo reagent/well by multiple channel pipette and read the plates with Tecan F500 luminometer within 3 minutes.
# The ability of the compounds disclosed herein to inhibit GR activity was quantified and the respective IC50 value was determined. Table 1and Table 2provide the cellular IC50 values of compounds disclosed herein.
row,SMILES,IC50
1,"O=C(c1ccccn1)[C@]12Cc3cnn(-c4ccc(F)cc4)c3C=C1CC[C@H](S(=O)(=O)c1cccc(Cl)c1)C2 [Example 37, ((4aS,6S)-6-((3-chlorophenyl)sulfonyl)-1-(4-fluorophenyl)-1,4,5,6,7,8-hexahydro-4aH-benzo[f]indazol-4a-yl)(pyridin-2-yl)methanone]",≤ 100 nM
2,"Cc1ccnc(C(=O)[C@]23Cc4cnn(-c5ccc(F)cc5)c4C=C2CC[C@@H](S(=O)(=O)c2ccccc2)C3)c1 [Example 38, ((4aS,6R)-1-(4-fluorophenyl)-6-(phenylsulfonyl)-1,4,5,6,7,8-hexahydro-4aH-benzo[f]indazol-4a-yl)(4-methylpyridin-2-yl)methanone]",≤ 100 nM
3,"Cc1ccnc(C(=O)[C@]23Cc4cnn(-c5ccc(F)cc5)c4C=C2CC[C@H](S(=O)(=O)c2cnn(C)n2)C3)c1 [Example 39, ((4aS,6S)-1-(4-fluorophenyl)-6-((2-methyl-2H-1,2,3-triazol-4-yl)sulfonyl)-1,4,5,6,7,8-hexahydro-4aH-benzo[f]indazol-4a-yl)(4-methylpyridin-2-yl)methanone]",≤ 100 nM
4,"CC(C)(C)S(=O)(=O)[C@H]1CCC2=Cc3c(cnn3-c3ccc(F)cc3)C[C@]2(C(=O)c2ccccn2)C1 [Example 40, ((4aS,6S)-6-(tert-butylsulfonyl)-1-(4-fluorophenyl)-1,4,5,6,7,8-hexahydro-4aH-benzo[f]indazol-4a-yl)(pyridin-2-yl)methanone]",≤ 100 nM
5,"O=C(c1cc(C(F)(F)F)ccn1)[C@]12Cc3cnn(-c4ccc(F)cc4)c3C=C1CC[C@H](S(=O)(=O)c1ccccn1)C2 [Example 41, ((4aS,6S)-1-(4-fluorophenyl)-6-(pyridin-2-ylsulfonyl)-1,4,5,6,7,8-hexahydro-4aH-benzo[f]indazol-4a-yl)(4-(trifluoromethyl)pyridin-2-yl)methanone]",≤ 100 nM
6,"Cc1ccc(C(=O)[C@]23Cc4cnn(-c5ccc(F)cc5)c4C=C2CC[C@H](S(=O)(=O)c2ccccn2)C3)nc1 [Example 42, ((4aS,6S)-1-(4-fluorophenyl)-6-(pyridin-2-ylsulfonyl)-1,4,5,6,7,8-hexahydro-4aH-benzo[f]indazol-4a-yl)(5-methylpyridin-2-yl)methanone]",≤ 100 nM
7,"O=C(c1ccccn1)[C@]12Cc3cnn(-c4ccc(F)cc4)c3C=C1CC[C@H](S(=O)(=O)c1cc(C(F)(F)F)ccn1)C2 [Example 43, ((4aS,6S)-1-(4-fluorophenyl)-6-((4-(trifluoromethyl)pyridin-2-yl)sulfonyl)-1,4,5,6,7,8-hexahydro-4aH-benzo[f]indazol-4a-yl)(pyridin-2-yl)methanone]",≤ 100 nM
8,"Cc1ccnc(C(=O)[C@]23Cc4cnn(-c5ccc(F)cc5)c4C=C2CC[C@H](S(=O)(=O)c2cccc(Cl)c2)C3)c1 [Example 44, ((4aS,6S)-6-((3-chlorophenyl)sulfonyl)-1-(4-fluorophenyl)-1,4,5,6,7,8-hexahydro-4aH-benzo[f]indazol-4a-yl)(4-methylpyridin-2-yl)methanone]",≤ 100 nM
9,"Cc1ccc(C(=O)[C@]23Cc4cnn(-c5ccc(F)cc5)c4C=C2CC[C@H](S(=O)(=O)c2ccccc2)C3)nc1 [Example 45, ((4aS,6S)-1-(4-fluorophenyl)-6-(phenylsulfonyl)-1,4,5,6,7,8-hexahydro-4aH-benzo[f]indazol-4a-yl)(5-methylpyridin-2-yl)methanone]",≤ 100 nM
10,"O=C(c1ccccn1)[C@]12Cc3cnn(-c4ccc(F)cc4)c3C=C1CC[C@H](S(=O)(=O)C1CCOCC1)C2 [Example 46, ((4aS,6S)-1-(4-fluorophenyl)-6-((tetrahydro-2H-pyran-4-yl)sulfonyl)-1,4,5,6,7,8-hexahydro-4aH-benzo[f]indazol-4a-yl)(pyridin-2-yl)methanone]",≤ 100 nM
11,"O=C(c1ccccn1)[C@]12Cc3cnn(-c4ccc(F)cc4)c3C=C1CC[C@H](S(=O)(=O)c1ccncc1)C2 [Example 47, ((4aS,6S)-1-(4-fluorophenyl)-6-(pyridin-4-ylsulfonyl)-1,4,5,6,7,8-hexahydro-4aH-benzo[f]indazol-4a-yl)(pyridin-2-yl)methanone]",≤ 100 nM
12,"Cc1ccnc(C(=O)[C@]23Cc4cnn(-c5ccc(F)cc5)c4C=C2CC[C@H](S(=O)(=O)c2ccncc2)C3)c1 [Example 48, ((4aS,6S)-1-(4-fluorophenyl)-6-(pyridin-4-ylsulfonyl)-1,4,5,6,7,8-hexahydro-4aH-benzo[f]indazol-4a-yl)(4-methylpyridin-2-yl)methanone]",≤ 100 nM
13,"CC(C)(C)CS(=O)(=O)[C@H]1CCC2=Cc3c(cnn3-c3ccc(F)cc3)C[C@]2(C(=O)c2ccccn2)C1 [Example 49, ((4aS,6S)-1-(4-fluorophenyl)-6-(neopentylsulfonyl)-1,4,5,6,7,8-hexahydro-4aH-benzo[f]indazol-4a-yl)(pyridin-2-yl)methanone]",≤ 100 nM
14,"O=C(c1ccccn1)[C@]12Cc3cnn(-c4ccc(F)cc4)c3C=C1CC[C@H](S(=O)(=O)C1CCCC1)C2 [Example 50, ((4aS,6S)-6-(cyclopentylsulfonyl)-1-(4-fluorophenyl)-1,4,5,6,7,8-hexahydro-4aH-benzo[f]indazol-4a-yl)(pyridin-2-yl)methanone]",≤ 100 nM
15,"Cc1ccc(C(=O)[C@]23Cc4cnn(-c5ccc(F)cc5)c4C=C2CC[C@@H](S(=O)(=O)c2ccccc2)C3)nc1 [Example 51, ((4aS,6R)-1-(4-fluorophenyl)-6-(phenylsulfonyl)-1,4,5,6,7,8-hexahydro-4aH-benzo[f]indazol-4a-yl)(5-methylpyridin-2-yl)methanone]",≤ 100 nM
16,"O=C(c1ccccn1)[C@]12Cc3cnn(-c4ccc(F)cc4)c3C=C1CC[C@H](S(=O)(=O)c1cccnc1)C2 [Example 53, ((4aS,6S)-1-(4-fluorophenyl)-6-(pyridin-3-ylsulfonyl)-1,4,5,6,7,8-hexahydro-4aH-benzo[f]indazol-4a-yl)(pyridin-2-yl)methanone]",≤ 100 nM
17,"O=C(c1cc(C(F)(F)F)ccn1)[C@]12Cc3cnn(-c4ccc(F)cc4)c3C=C1CC[C@H](S(=O)(=O)c1cccnc1)C2 [Example 54, ((4aS,6S)-1-(4-fluorophenyl)-6-(pyridin-3-ylsulfonyl)-1,4,5,6,7,8-hexahydro-4aH-benzo[f]indazol-4a-yl)(4-(trifluoromethyl)pyridin-2-yl)methanone]",≤ 100 nM
18,"O=C(c1ccc(C2CC2)cn1)[C@]12Cc3cnn(-c4ccc(F)cc4)c3C=C1CC[C@H](S(=O)(=O)c1ccccn1)C2 [Example 57, (5-cyclopropylpyridin-2-yl)((4aS,6S)-1-(4-fluorophenyl)-6-(pyridin-2-ylsulfonyl)-1,4,5,6,7,8-hexahydro-4aH-benzo[f]indazol-4a-yl)methanone]",≤ 100 nM
19,"O=C(c1ccc(C(F)(F)F)cn1)[C@]12Cc3cnn(-c4ccc(F)cc4)c3C=C1CC[C@H](S(=O)(=O)c1ccccn1)C2 [Example 58, ((4aS,6S)-1-(4-fluorophenyl)-6-(pyridin-2-ylsulfonyl)-1,4,5,6,7,8-hexahydro-4aH-benzo[f]indazol-4a-yl)(5-(trifluoromethyl)pyridin-2-yl)methanone]",≤ 100 nM
20,"O=C(c1cc(C(F)(F)F)ccn1)[C@]12Cc3cnn(-c4ccc(F)cc4)c3C=C1CC[C@H](S(=O)(=O)C1CCOCC1)C2 [Example 59, ((4aS,6S)-1-(4-fluorophenyl)-6-((tetrahydro-2H-pyran-4-yl)sulfonyl)-1,4,5,6,7,8-hexahydro-4aH-benzo[f]indazol-4a-yl)(4-(trifluoromethyl)pyridin-2-yl)methanone]",≤ 100 nM
21,"CC1(O)CCC(S(=O)(=O)[C@H]2CCC3=Cc4c(cnn4-c4ccc(F)cc4)C[C@]3(C(=O)c3ccccn3)C2)CC1 (stereo partly drawn) [Example 60, ((4aS,6S)-1-(4-fluorophenyl)-6-((4-hydroxy-4-methylcyclohexyl)sulfonyl)-1,4,5,6,7,8-hexahydro-4aH-benzo[f]indazol-4a-yl)(pyridin-2-yl)methanone]",≤ 100 nM
